Values quoted from earlier work in patent US20140113009A1, “CONTROLLED APPLICATION OF CROSS-LINKING AGENT” (Avedro, Inc., priority 2012, published 2014).

What was measured:
[1] = combined with greater than 40 mM ascorbic acid; after 4 hours of light exposure
[2] = compared with Riboflavin

Compound: O=C1O[C@H]([C@@H](O)CO)C(O)=C1O [ascorbic acid]
- Riboflavin remains unreacted [1]: more than 90%

Compound: Cc1cc2nc3c(=O)[nH]c(=O)nc-3n(C[C@H](O)[C@H](O)[C@H](O)COP(=O)(O)O)c2cc1C [FMN, Riboflavin-5-phosphate]
- solubility in water relative to Riboflavin [2]: more soluble in water
